Measurements published in ChEMBL document CHEMBL1146319, “Design, synthesis, and in vivo evaluation of oxamniquine methacrylate and acrylamide prodrugs” (2007).

Tests used:
Type in all cases: functional
Schistosoma mansoni [1] = assay: Antiparasitic activity against Schistosoma mansoni BH cercareae infected Swiss mouse assessed as average number of eggs at 1 stage after 10 days by oogram test
Schistosoma mansoni [2] = assay: Antiparasitic activity against Schistosoma mansoni BH cercareae infected Swiss mouse assessed as average number of eggs at 2 stage after 10 days by oogram test
Schistosoma mansoni [3] = assay: Antiparasitic activity against Schistosoma mansoni BH cercareae infected Swiss mouse assessed as average number of eggs at 3 stage after 10 days by oogram test
Schistosoma mansoni [4] = assay: Antiparasitic activity against Schistosoma mansoni BH cercareae infected Swiss mouse assessed as average number of eggs at 1 stage after 20 days by oogram test
Schistosoma mansoni [5] = assay: Antiparasitic activity against Schistosoma mansoni BH cercareae infected Swiss mouse assessed as total number of worms after 10 days by mesenteric veins perfusion technique
Schistosoma mansoni [6] = assay: Antiparasitic activity against Schistosoma mansoni BH cercareae infected Swiss mouse assessed as average number of eggs at 2 stage after 20 days by oogram test
Schistosoma mansoni [7] = assay: Antiparasitic activity against Schistosoma mansoni BH cercareae infected Swiss mouse assessed as average number of eggs at 3 stage after 20 days by oogram test
Schistosoma mansoni [8] = assay: Antiparasitic activity against Schistosoma mansoni BH cercareae infected Swiss mouse as total numbers of worms after 20 days by mesenteric veins perfusion technique

| Structure (SMILES) | Activity (Schistosoma mansoni [1]) | Activity (Schistosoma mansoni [2]) | Activity (Schistosoma mansoni [3]) | Activity (Schistosoma mansoni [4]) | Activity (Schistosoma mansoni [5]) | Activity (Schistosoma mansoni [6]) | Activity (Schistosoma mansoni [7]) | Activity (Schistosoma mansoni [8]) |
| --- | --- | --- | --- | --- | --- | --- | --- | --- |
| CC(C)NCC1CCc2cc(CO)c([N+](=O)[O-])cc2N1 (stereo unspecified) [OXAMNIQUINE] | 0 | 0 | 0 | 0 | 3 | 0 | 0 | 13 |
| C=C(C)C(=O)OCc1cc2c(cc1[N+](=O)[O-])NC(CNC(C)C)CC2 (stereo unspecified) [OXAMNIQUINE ACRYLAMIDE] | 0 | 0.11 | 0.22 | 0 | 48 | 0.09 | 0.27 | 39 |
